# Assay results from patent US20240335394A1 (Ludwig Institute for Cancer Research Ltd, priority 2021, published 2024).
# What was measured:
# [1] = tested on: MC38 cells; assay: MC38 rechallenge of mice that cleared tumors; format: in vivo; settings: 6 mice cleared by methanol plus anti-PD1, reinoculated with 5×10^5 MC38 cells on opposite flank, untreated, observed three weeks
# Excerpt: The rechallenged mice were monitored twice weekly for tumor growth for three weeks. Fifteen age-matched, tumor-naïve control mice were simultaneously inoculated as a control. The mice were not treated during the observation interval.
# [2] = humans; cited from earlier work
# [3] = tested on: syngeneic MC38 tumors; assay: MC38 study: anti-PD1 antibody alone or with methanol or sodium formate, tumor volume and survival; format: in vivo, C57BL/6 mice
# Method: Tumor volumes were measured by caliper twice weekly.
# [4] = primates; cited from earlier work
# [5] = tested on: 1C-starved T-cells; settings: formate supplementation; cited from earlier work
# [6] = in vivo; cited from earlier work
# [7] = Body weight in the MC38 study; settings: methanol 2 g/kg daily oral gavage or sodium formate 0.5% w/v in drinking water, with anti-PD1
# Method: Female C57BL/6 mice (10 per group) were inoculated subcutaneously with 5×10^5 MC38 syngeneic mouse tumor cells. […] Tumor volumes were measured by caliper twice weekly.
smiles,measurement,setting,value
CO [methanol],tumor development after rechallenge,[1],did not develop tumors
same,lethal dose,[2],300 to 1000 mg/kg
same,response to anti-PD1 therapy,"[3]; methanol 2 g/kg daily oral gavage plus anti-PD1 antibody 5 mg/kg ip twice weekly, compared to vehicle or sodium formate",improved response to anti-PD1 therapy
same,synergy with immunotherapy in a mouse model of cancer,[3]; mouse model of cancer,synergize with immunotherapy
O=C[O-].[Na+] [sodium formate],formate levels at which symptomatic toxicity is observed,[4],greater than 8 mM
same,T-cell activity,[5],rescues T-cell activity
same,elimination,[6],too rapidly eliminated to dose directly
same,effects on body weight,[7],No effects on body weight
